Starred links: 1 amine or outer side, 2 acyl side, 3 side chain; linkers in the order of their positions; H or OH if unused. Residues, ends and D or L forms follow the SMILES beside them. Groups on a side chain read outwards from the residue. *: point of attachment. TTDA(Palmitoyl) = CCCCCCCCCCCCCCCC(=O)NCCCOCCOCCOCCCN*; Suc = O=C(CCC(=O)[*:2])[*:1]
System: urinary metabolites
Assay: NMR-based metabolomics of urine of DIO mice
Assay type: in vivo, C57BL/6 mice
Design: key to DMA, Mean / DMG, Mean / MA, Mean / TMA, Mean / acetate, Mean / allantoin, Mean / carnitine, Mean / choline, Mean / cis-aconitate, Mean / creatine+creatinine, Mean / creatine, Mean / creatinine, Mean / ethanolamine, Mean / formate, Mean / galactose, Mean / glucose, Mean / glycine, Mean / lactate, Mean / succinate, Mean / vinylacetylglycine, Mean: TSA-normalized intensity of the metabolite's representative NMR signal
Method: Urine samples for NMR-based metabolomics were collected prior to the start of the interventions and at the end of the experiment. For overnight urine collection (from 5 pm to 8 am), the mice were housed in individual metabolic cages (Tecniplast, Buguggiate, Italy) without access to food. Samples were collected with the addition of NaN3 and stored at -80°C until NMR analysis.
The urine samples were thawed at room temperature and centrifuged at 13 684 x g for 5 min prior to the NMR experiments. A 200-μl aliquot of supernatant was diluted with 340 μl of H2O mixed with 60 μl of phosphate buffer (1.5 M KH2PO4 in D2O containing 2 mM NaN3 and 0.1% trimethylsilyl propionic acid (TSP), pH 7.4) and transferred to a 5-mm NMR tube. The NMR data were acquired with a 600 MHz Bruker Avance III spectrometer (Bruker BioSpin, Rheinstetten, Germany) equipped with a 5-mm TCI cryogenic probe head. All of the experiments were performed at 300 K. Automatic tuning, matching, shimming and adjusting of the 90° pulse length were performed for each sample.
As mouse urine naturally contains urinary proteins, the NMR spectra were acquired using a Carr-Purcell-Meiboom-Gill (CPMG) pulse sequence with water presaturation (Bruker pulse sequence cpmgpr1d) to eliminate the strong protein background. […] For better metabolite identification, a short J-resolved experiment with presaturation (NS = 2, SW = 16 ppm, TD = 8k, number of increments = 40, SW = 78.125 Hz in the indirect dimension, and relaxation delay = 2 s) was executed for all samples. Additional two-dimensional ^1H-^1H correlation spectroscopy (COSY) and ^1H-^13C heteronuclear multiple-quantum correlation (HMQC) experiments (Bruker pulse sequences cosygpprqf and hmqcphpr) were performed for selected samples.
The acquired data were processed using Topspin 3.2 software (Bruker BioSpin, Rheinstetten, Germany). Line broadening of 0.3 Hz was applied on free induction decays (FIDs) prior to Fourier transformation. The spectra were automatically phased, baseline corrected and referenced to the signal of TSP (0.00 ppm).
The assignment of individual metabolites was achieved by comparing the proton spectra with the spectra of pure metabolites using Chenomx NMR Suite 7.6 (Chenomx Inc., Edmonton, AB, Canada), the HMDB database and previously published metabolomic data. The identification of metabolites was supported through J-resolved and COSY experiments and, if possible, confirmed using carbon chemical shifts extracted from the HMQC spectra.
For quantitation of individual metabolites, the CPMG spectra were uniformly binned in the range of 0.10–10.00 ppm to 0.01-ppm intervals using AMIX software (Bruker BioSpin, Rheinstetten, Germany). This procedure reduced the dimensionality of the data, eliminated chemical shift variations and thus simplified the reproducible automatic quantification. Regions corresponding to water (4.60–4.90 ppm) and urea (5.60–6.00 ppm) were removed prior to analysis. As the dilutions of the original urine samples differed (due to the differences in water intake during urine collection), all of the spectra were normalized to the total spectral area (TSA). For each identified metabolite, one representative signal was chosen and then quantified as the sum of appropriate adjacent 0.01-ppm bins to cover the whole signal width. The metabolite concentration was expressed as the TSA-normalized intensity of the respective signal. For selection of an appropriate statistical method (parametric or non-parametric) the Lilliefors test of normality was performed. […] Metabolite alterations with a P < 0.05 were considered statistically significant. Statistical analysis was performed using Matlab software (“MATLAB version 8.6 (R2015b). Natick, Massachusetts: The MathWorks Inc., 2015.,” n.d.). […]

[1] = urine NMR signal, DIO mice, group mean
[2] = urine of DIO mice, NMR metabolomics, difference of analog mean vs saline mean

CCCCCCCCCCCCCCCC(=O)NCCCOCCOCCOCCCNC(=O)CCC(=O)NCCCC[C@H](NC(=O)[C@@H](NC(=O)[C@H](CCC(=O)O)NC(=O)[C@H](CCSC)NC(=O)[C@H](CO)NC(=O)[C@H](Cc1c[nH]cn1)NC(=O)[C@H](CCCNC(=N)N)NC(=O)[C@H](Cc1c[nH]cn1)NC(=O)[C@@H](NC(=O)[C@H](CCCNC(=N)N)NC(=O)[C@H](CO)NC(=O)CCC(=O)NCCCOCCOCCOCCCNC(=O)CCCCCCCCCCCCCCC)[C@@H](C)O)[C@@H](C)CC)C(=O)N[C@H](C(=O)N1CCC[C@H]1C(=O)N[C@@H](CC(=O)O)C(=O)N[C@H](C(=O)N[C@@H](CC(N)=O)C(=O)N1CCC[C@H]1C(=O)N[C@@H](C)C(=O)N[C@@H](Cc1c[nH]c2ccccc12)C(=O)N[C@@H](Cc1ccc(O)cc1)C(=O)N[C@@H](C)C(=O)N[C@@H](CO)C(=O)N[C@@H](CCCNC(=N)N)C(=O)NCC(=O)N[C@H](C(=O)N[C@@H](CCCNC(=N)N)C(=O)N1CCC[C@H]1C(=O)N[C@H](C(=O)NCC(=O)N[C@@H](CCCNC(=N)N)C(=O)N[C@@H](Cc1ccccc1)C(N)=O)C(C)C)[C@@H](C)CC)[C@@H](C)CC)[C@@H](C)O [analog 3] ({TTDA(Palmitoyl)-Suc}-SRTHRHSMEIK([Suc-TTDA(Palmitoyl)])TPDINPAWYASRGIRPVGRF-NH2)
2-OG (2.45 ppm), Mean [1]: 11.878 | 2-OG (3.01 ppm), Mean [1]: 10.469 | 2-PY (8.33 ppm), Mean [1]: 1.098 | 3-indoxylsulfate (7.51 ppm), Mean [1]: 1.344 | 3-indoxylsulfate (7.71 ppm), Mean [1]: 0.810 | 4-PY (7.97 ppm), Mean [1]: 2.017 | 4-PY (8.55 ppm), Mean [1]: 0.633 | DMA, Mean [1]: 5.618 | DMG, Mean [1]: 1.853 | MA, Mean [1]: 3.016 | MNA (8.90 ppm), Mean [1]: 0.487 | MNA (8.97 ppm), Mean [1]: 0.470 | MNA (9.265 ppm), Mean [1]: 0.490 | MNA-Nox (7.75 ppm), Mean [1]: 0.972 | MNA-Nox (8.13 ppm), Mean [1]: 0.792 | MNA-Nox (8.49 ppm), Mean [1]: 0.511 | MNA-Nox (8.75 ppm), Mean [1]: 0.485 | N-carbamoylalanine (2.38 ppm), Mean [1]: 11.854 | N-carbamoylalanine (3.31 ppm), Mean [1]: 9.499 | N-isovalerylglycine + oxovalerate (0.92 ppm), Mean [1]: 16.056 | TMA, Mean [1]: 11.780 | acetate, Mean [1]: 3.429 | allantoin, Mean [1]: 22.447 | carnitine, Mean [1]: 6.067 | choline, Mean [1]: 1.970 | cis-aconitate, Mean [1]: 8.481 | citrate (2.55 ppm), Mean [1]: 29.434 | citrate (2.69 ppm), Mean [1]: 26.220 | creatine+creatinine, Mean [1]: 24.904 | creatine, Mean [1]: 7.343 | creatinine, Mean [1]: 11.686 | ethanolamine, Mean [1]: 8.370 | formate, Mean [1]: 0.199 | fumarate, Mean [1]: 0.151 | galactose, Mean [1]: 0.578 | glucose, Mean [1]: 3.207 | glycine, Mean [1]: 5.874 | hexanoylglycine + acids (0.88 ppm), Mean [1]: 15.361 | hippurate (7.55 ppm), Mean [1]: 3.987 | hippurate (7.64 ppm), Mean [1]: 2.057 | hippurate (7.84 ppm), Mean [1]: 4.311 | lactate, Mean [1]: 6.853 | multiplet acids (1.6 ppm), Mean [1]: 12.521 | putrescin, Mean [1]: 8.726 | succinate, Mean [1]: 9.267 | taurine (3.27 ppm), Mean [1]: 24.146 | taurine (3.43 ppm), Mean [1]: 20.508 | trigonelline (8.84 ppm), Mean [1]: 0.263 | trigonelline (9.13 ppm), Mean [1]: 0.106 | vinylacetylglycine, Mean [1]: 3.527 | 2-OG (2.45 ppm), Saline/analog % [2]: 0.010% | 2-OG (3.01 ppm), Saline/analog % [2]: 0.022% | 2-PY (8.33 ppm), Saline/analog % [2]: -0.056% | 3-indoxylsulfate (7.51 ppm), Saline/analog % [2]: 0.032% | 3-indoxylsulfate (7.71 ppm), Saline/analog % [2]: 0.052% | 4-PY (7.97 ppm), Saline/analog % [2]: 0.115% | 4-PY (8.55 ppm), Saline/analog % [2]: 0.091% | DMA, Saline/analog % [2]: 0.119% | N-carbamoylalanine (2.38 ppm), Saline/analog % [2]: 0.101% | N-carbamoylalanine (3.31 ppm), Saline/analog % [2]: 0.00116% | N-isovalerylglycine + oxovalerate (0.92 ppm), Saline/analog % [2]: 0.108% | TMA, Saline/analog % [2]: -0.031% | acetate, Saline/analog % [2]: -0.087% | allantoin, Saline/analog % [2]: 0.112% | carnitine, Saline/analog % [2]: 0.019% | choline, Saline/analog % [2]: -0.000203% | cis-aconitate, Saline/analog % [2]: -0.045% | citrate (2.55 ppm), Saline/analog % [2]: -0.096% | citrate (2.69 ppm), Saline/analog % [2]: -0.120% | creatine+creatinine, Saline/analog % [2]: 0.092%
